According to patent US9156877B2, “17-hydroxy-17-pentafluorethyl-estra-4,9(10)-dien-11-benzylidene derivatives, methods for the production thereof and use thereof for treating diseases” (Bayer Intellectual Property GmbH, priority 2009, dated 2015):

Key:
[1] = target: T1, human progesterone receptor A (Homo sapiens, UniProt P06401); assay: Progesterone receptor-antagonistic action in stably transfected SK-N-MC cells with MMTV-LUC reporter (PR-A); assay type: cell-based; settings: antagonistic potency against 0.1 nmol/l promegestone, 24 hours, luciferase
T1 construct: expressed in transfected cells; host or cells: SK-N-MC human neuroblastoma cells, stably transfected with pRChPR-A-neo and pMMTV-LUC
T1 sequence (P06401 1-769 isoform P06401-2): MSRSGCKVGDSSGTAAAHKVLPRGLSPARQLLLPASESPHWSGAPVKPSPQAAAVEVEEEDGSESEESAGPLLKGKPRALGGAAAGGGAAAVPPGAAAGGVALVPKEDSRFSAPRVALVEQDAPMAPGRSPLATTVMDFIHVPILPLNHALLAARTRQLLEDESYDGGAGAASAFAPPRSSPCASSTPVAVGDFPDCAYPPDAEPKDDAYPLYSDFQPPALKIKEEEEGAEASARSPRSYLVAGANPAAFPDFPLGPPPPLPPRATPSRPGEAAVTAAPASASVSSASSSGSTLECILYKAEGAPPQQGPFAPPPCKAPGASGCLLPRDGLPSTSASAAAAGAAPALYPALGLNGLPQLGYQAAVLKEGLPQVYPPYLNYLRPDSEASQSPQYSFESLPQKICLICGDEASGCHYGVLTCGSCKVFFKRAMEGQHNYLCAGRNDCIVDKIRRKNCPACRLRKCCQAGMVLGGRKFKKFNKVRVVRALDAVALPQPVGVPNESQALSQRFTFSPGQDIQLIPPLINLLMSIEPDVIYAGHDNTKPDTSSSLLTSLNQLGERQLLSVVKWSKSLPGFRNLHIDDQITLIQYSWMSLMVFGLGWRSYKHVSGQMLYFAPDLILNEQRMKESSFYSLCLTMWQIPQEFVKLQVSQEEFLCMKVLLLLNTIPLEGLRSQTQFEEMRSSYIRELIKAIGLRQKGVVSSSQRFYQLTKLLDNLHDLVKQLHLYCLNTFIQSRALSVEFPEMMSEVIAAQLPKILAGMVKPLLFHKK
Experimental: (§1) Determination of Progesterone Receptor-Antagonistic Action in Stable Transfectants of Human Neuroblastoma Cells (SK-N-MC Cells) with the Human Progesterone A or Progesterone B Receptor and an MN-LUC Reporter Construct
(§2) SK-N-MC cells (human neuroblastoma cells) which have been stably transfected with plasmids expressing the human progesterone receptor B (pRChPR-B-neo) or the human progesterone receptor A (pRChPR-A-neo) and a reporter construct (pMMTV-LUC) were incubated for 24 hours either in the absence (negative control) or in the presence of ascending amounts of the particular test compound (0.01 nmol/l, 0.1 nmol/l, 1 nmol/l, 10 nmol/l, 100 nmol/l and […]), in order to determine the agonistic efficacy. As a positive control of the reporter gene induction, the cells were treated with the synthetic gestagen promegestone (0.01 nmol/l, 0.1 nmol/l, 1 nmol/l, 10 nmol/l, 100 nmol/l and […]). To determine the antagonistic activity, the cells were treated with 0.1 nmol/l promegestone and additionally with ascending amounts of the particular test compound (0.01 nmol/l, 0.1 nmol/l, 1 nmol/l, 10 nmol/l, 100 nmol/l and […]). The activity of the reporter gene LUC (LUC=luciferase) was determined in the cell lysates and measured as RLU (relative light units). All measurements are reported as % efficacy and as EC50 and IC50 concentrations.

[2] = target: T2, human progesterone receptor B (Homo sapiens, UniProt P06401); assay: Progesterone receptor-antagonistic action in stably transfected SK-N-MC cells with MMTV-LUC reporter (PR-B); assay type: cell-based; settings: antagonistic potency against 0.1 nmol/l promegestone, 24 hours, luciferase
T2 construct: expressed in transfected cells; host or cells: SK-N-MC human neuroblastoma cells, stably transfected with pRChPR-B-neo and pMMTV-LUC
T2 sequence (P06401 1-933): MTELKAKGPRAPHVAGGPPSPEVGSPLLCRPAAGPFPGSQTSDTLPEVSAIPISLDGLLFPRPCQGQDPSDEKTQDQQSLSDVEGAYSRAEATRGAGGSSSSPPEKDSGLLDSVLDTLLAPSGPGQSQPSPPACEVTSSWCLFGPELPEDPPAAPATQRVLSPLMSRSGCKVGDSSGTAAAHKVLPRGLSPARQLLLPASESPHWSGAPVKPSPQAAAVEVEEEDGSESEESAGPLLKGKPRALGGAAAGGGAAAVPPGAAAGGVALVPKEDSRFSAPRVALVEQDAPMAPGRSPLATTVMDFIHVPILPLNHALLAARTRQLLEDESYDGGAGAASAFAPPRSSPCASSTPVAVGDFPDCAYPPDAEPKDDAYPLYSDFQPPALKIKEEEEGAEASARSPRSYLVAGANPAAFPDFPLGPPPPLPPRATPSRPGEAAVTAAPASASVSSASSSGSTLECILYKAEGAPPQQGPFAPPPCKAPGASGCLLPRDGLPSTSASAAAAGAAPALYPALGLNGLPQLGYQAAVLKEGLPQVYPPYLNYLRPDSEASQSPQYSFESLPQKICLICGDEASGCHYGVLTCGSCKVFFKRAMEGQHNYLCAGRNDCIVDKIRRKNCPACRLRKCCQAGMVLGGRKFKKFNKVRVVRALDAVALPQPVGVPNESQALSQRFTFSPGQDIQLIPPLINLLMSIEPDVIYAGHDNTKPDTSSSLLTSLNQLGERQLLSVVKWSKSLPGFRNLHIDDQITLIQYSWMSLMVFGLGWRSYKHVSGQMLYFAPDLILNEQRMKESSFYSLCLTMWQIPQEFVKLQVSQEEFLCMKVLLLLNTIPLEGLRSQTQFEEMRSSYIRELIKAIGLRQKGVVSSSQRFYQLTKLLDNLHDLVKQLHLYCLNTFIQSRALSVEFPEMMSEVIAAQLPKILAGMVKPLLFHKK
Experimental: as §1, §2

SMILES | IC50 [1] | IC50 [2]
COc1ccc(C/C=C/c2ccc([C@H]3C[C@@]4(C)[C@@H](CC[C@@]4(O)C(F)(F)C(F)(F)F)[C@@H]4CCC5=CC(=O)CCC5=C43)cc2)cc1 [Example 3, (8S,11R,13S,14S,17S)-17-hydroxy-11-{4-[(E)-3-(4-methoxyphenyl)-propenyl]phenyl}-13-methyl-17-pentafluoroethyl-1,2,6,7,8,11,12,13,14,15,16,17-dodecahydrocyclopenta[a]phenanthren-3-one] | 1.5 nM | 1.8 nM
COC(=O)C(C/C=C/c1ccc([C@H]2C[C@@]3(C)[C@@H](CC[C@@]3(O)C(F)(F)C(F)(F)F)[C@@H]3CCC4=CC(=O)CCC4=C32)cc1)C(=O)OC [Example 4, 2-{(E)-3-[4-((8S,11R,13S,14S,17S)-17-hydroxy-13-methyl-3-oxo-17-pentafluoroethyl-2,3,6,7,8,11,12,13,14,15,16,17-dodecahydro-1H-cyclopenta[a]phenanthren-11-yl)phenyl]allyl}malonic acid dimethyl ester] | 1 nM | 1.1 nM
C=C(C)c1ccc([C@H]2C[C@@]3(C)[C@@H](CC[C@@]3(O)C(F)(F)C(F)(F)F)[C@@H]3CCC4=CC(=O)CCC4=C32)cc1 [Example 11, (8S,11R,13S,14S,17S)-17-hydroxy-11-(4-isopropenylphenyl)-13-methyl-17-pentafluoroethyl-1,2,6,7,8,11,12,13,14,15,16,17-dodecahydrocyclopenta[a]phenanthren-3-one] | – | 0.012 nM
C[C@]12C[C@H](c3ccc(/C=C/CNC(=O)Nc4ccc(N5CCCCC5)cc4)cc3)C3=C4CCC(=O)C=C4CC[C@H]3[C@@H]1CC[C@@]2(O)C(F)(F)C(F)(F)F [Example 58, 1-{(E)-3-[4-((8S,11R,13S,14S,17S)-17-hydroxy-13-methyl-3-oxo-17-pentafluoroethyl-2,3,6,7,8,11,12,13,14,15,16,17-dodecahydro-1H-cyclopenta[a]phenanthren-11-yl)phenyl]allyl}-3-(4-piperidin-1-ylphenyl)urea] | 0.5 nM | –

Second part, the compound after the results:

IC50 [1] | IC50 [2] | SMILES
0.13 nM | 0.26 nM | CCOC(=O)/C=C/c1ccc([C@H]2C[C@@]3(C)[C@@H](CC[C@@]3(O)C(F)(F)C(F)(F)F)[C@@H]3CCC4=CC(=O)CCC4=C32)cc1 [Example 12, (E)-3-[4-((8S,11R,13S,14S,17S)-17-hydroxy-13-methyl-3-oxo-17-pentafluoroethyl-2,3,6,7,8,11,12,13,14,15,16,17-dodecahydro-1H-cyclopenta[a]phenanthren-11-yl)phenyl]acrylic acid ethyl ester]
0.011 nM | < 0.01 nM | CCOC(=O)/C=C/C=C/c1ccc([C@H]2C[C@@]3(C)[C@@H](CC[C@@]3(O)C(F)(F)C(F)(F)F)[C@@H]3CCC4=CC(=O)CCC4=C32)cc1 [Example 15, (2E,4E)-5-[4-((8S,11R,13S,14S,17S)-17-hydroxy-13-methyl-3-oxo-17-pentafluoroethyl-2,3,6,7,8,11,12,13,14,15,16,17-dodecahydro-1H-cyclopenta[a]phenanthren-11-yl)phenyl]penta-2,4-dienoic acid ethyl ester]
0.1 nM | – | C[C@]12C[C@H](c3ccc(/C=C/CNC(=O)Nc4ccccc4)cc3)C3=C4CCC(=O)C=C4CC[C@H]3[C@@H]1CC[C@@]2(O)C(F)(F)C(F)(F)F [Example 42, 1-{(E)-3-[4-((8S,11R,13S,14S,17S)-17-hydroxy-13-methyl-3-oxo-17-pentafluoroethyl-2,3,6,7,8,11,12,13,14,15,16,17-dodecahydro-1H-cyclopenta[a]phenanthren-11-yl)phenyl]allyl}-3-phenylurea]
0.1 nM | – | COc1ccc(NC(=O)NC/C=C/c2ccc([C@H]3C[C@@]4(C)[C@@H](CC[C@@]4(O)C(F)(F)C(F)(F)F)[C@@H]4CCC5=CC(=O)CCC5=C43)cc2)cc1 [Example 54, 1-{(E)-3-[4-((8S,11R,13S,14S,17S)-17-hydroxy-13-methyl-3-oxo-17-pentafluoroethyl-2,3,6,7,8,11,12,13,14,15,16,17-dodecahydro-1H-cyclopenta[a]phenanthren-11-yl)phenyl]allyl}-3-(4-methoxyphenyl)urea]
